Where two headings read alike, the source gives them in different places. Marks after values point to notes of the source that are not given here. Blank lines part the entries; values can stand above or below the molecule they belong to.
What was measured:
[1] = Biodistribution of [^125I]2 and [^67Ga]3 in normal mice with IPBA; type: in vivo; settings: for tissue uptake at 4 h / tissue uptake dose at 4 h: male, ddY, iv, total radioactivity
Experimental: To evaluate the effects of inhibitors in normal mice, [^125I]2 (37 kBq) and [^67Ga]3 (37 kBq) were intravenously coadministered into 6 weeks male ddY mice (29-36 g, Japan SLC, Inc., Hamamatsu, Japan). At 1 h postinjection of radiotracers, sodium 4-(4-iodophenyl)butanoate (IPBA) at 2 (680 µg, 2.2 µmol) or 5 (1.7 mg, 5.5 µmol) molar equivalent of blood albumin was administered. Mice were sacrificed at 4 h post-injection of radiotracers.
Table S2. […] IPBA as an inhibitor was administered at 1 h postinjection of [^125I]2 and [^67Ga]3.

[2] = test system: U-87 MG tumor-bearing mice; parameters: method as in PMID 37819452; settings: 24-h postinjection, without IPBA; cited from earlier work
[3] = cited from earlier work
[4] = Biodistribution of [^211At]1 and [^125I]2 in normal mice with ibuprofen or IPBA as albumin-binding inhibitor; settings: inhibitor at 1 h postinjection, 4 h postinjection of radiotracer
Experimental: To evaluate the effects of albumin-binding inhibitors in normal mice, [^211At]1 (37 kBq) and [^125I]2 (37 kBq) were intravenously coadministered. […] The total blood albumin (1.1 µmol) in normal mice was calculated from the albumin concentration (3.0 g/dL ≈ 455 µM) in blood, which was informed from Japan SLC, Inc., total blood volume (2.5 mL) as 8% of body weight, and the molecular weight of albumin as 66,000 g/mol. […]
Table S1. Biodistribution of radioactivity 4 h after administration of [^211At]1 and [^125I]2 in normal mice.

[5] = normal mice, 4 h after administration of [^125I]2 and [^67Ga]3, IPBA 2 eq at 1 h postinjection
[6] = normal mice, 4 h after administration of [^125I]2 and [^67Ga]3, IPBA 5 eq at 1 h postinjection
[7] = normal mice, 4 h after administration, without IPBA

- tissue uptake at 4 h ([1]; mouse, heart, normal mice, 4 h after administration of [^125I]2 and [^67Ga]3, IPBA 5 eq at 1 h postinjection, read-out: Radioactivity, Heart): 0.29 %ID/g
- tissue uptake at 4 h ([1]; mouse, in vivo, Radioactivity, L. intestine): 3.07 %ID/g
- tissue uptake at 4 h ([1]; mouse, in vivo, Radioactivity, S. intestine): 1.05 %ID/g
- tissue uptake at 4 h ([1]; mouse, kidney, normal mice, 4 h after administration of [^125I]2 and [^67Ga]3, IPBA 5 eq at 1 h postinjection, read-out: Radioactivity, Kidney): 8.04 %ID/g
- tissue uptake at 4 h ([1]; mouse, liver, normal mice, 4 h after administration of [^125I]2 and [^67Ga]3, IPBA 5 eq at 1 h postinjection, read-out: Radioactivity, Liver): 1.54 %ID/g
- tissue uptake dose at 4 h ([1]; mouse, neck, normal mice, 4 h after administration of [^125I]2 and [^67Ga]3, IPBA 2 eq at 1 h postinjection, read-out: Radioactivity, Neck): 0.01 %ID
- tissue uptake dose at 4 h ([1]; mouse, neck, normal mice, 4 h after administration of [^125I]2 and [^67Ga]3, IPBA 5 eq at 1 h postinjection, read-out: Radioactivity, Neck): 0.01 %ID
- tissue uptake dose at 4 h ([1]; mouse, stomach, normal mice, 4 h after administration of [^125I]2 and [^67Ga]3, IPBA 2 eq at 1 h postinjection, read-out: Radioactivity, Stomach): 0.48 %ID
- tissue uptake dose at 4 h ([1]; mouse, stomach, normal mice, 4 h after administration of [^125I]2 and [^67Ga]3, IPBA 5 eq at 1 h postinjection, read-out: Radioactivity, Stomach): 0.59 %ID
- Change of biodistribution by IPBA administration ([1]; normal mice, IPBA 2 or 5 eq at 1 h postinjection): did not change biodistribution
SMILES: N=C(N)NCCC[C@@H]1NC(=O)[C@H](CCCCNC(=O)[C@H](CCCCN)NC(=O)CN2CCN(CC(=O)O)CCN(CC(=O)O)CCN(CC(=O)O)CC2)NC(=O)[C@@H](Cc2ccccc2)NC(=O)[C@H](CC(=O)O)NC(=O)CNC1=O [[^67Ga]3, [^67Ga]Ga-DOTA-K-c(RGDfK), metal not drawn]
- Radioactivity, L. intestine ([1]; mouse, in vivo): 4.88 (1.50) ^a % injected activity per gram
- Radioactivity, S. intestine ([1]; mouse, in vivo): 1.76 (0.40) ^*,^ b % injected activity per gram
- Radioactivity, Blood [1, 5]: 0.03 (0.01) ^***,^ a % injected activity per gram
- Radioactivity, Bone [1, 5]: 0.55 (0.08) ^**,^ a % injected activity per gram
- Radioactivity, Brain [1, 5]: 0.04 (0.01) ^** % injected activity per gram
- Radioactivity, Heart [1, 5]: 0.23 (0.03) ^***,^ a % injected activity per gram
- Radioactivity, Kidney [1, 5]: 6.67 (1.04) ^* % injected activity per gram
- Radioactivity, Liver [1, 5]: 1.18 (0.14) ^*** % injected activity per gram
- Radioactivity, Lung [1, 5]: 0.49 (0.05) ^***,^ a % injected activity per gram
- Radioactivity, Muscle [1, 5]: 0.16 (0.02) ^***,^ a % injected activity per gram
- Radioactivity, Pancreas [1, 5]: 0.33 (0.01) ^*** % injected activity per gram
- Radioactivity, Spleen [1, 5]: 0.64 (0.16) ^*** % injected activity per gram
- Radioactivity, Blood [1, 6]: 0.03 (0.00) ^*,^ a % injected activity per gram
- Radioactivity, Bone [1, 6]: 0.70 (0.12) ^** % injected activity per gram
- Radioactivity, Brain [1, 6]: 0.05 (0.02) ^** % injected activity per gram
- Radioactivity, Lung [1, 6]: 0.55 (0.11) ^*,^ a % injected activity per gram
- Radioactivity, Muscle [1, 6]: 0.23 (0.04) ^*,^ b % injected activity per gram
- Radioactivity, Pancreas [1, 6]: 0.47 (0.13) ^** % injected activity per gram
- Radioactivity, Spleen [1, 6]: 0.90 (0.28) ^* % injected activity per gram
- Tumor accumulation [2]: 1.84 ± 0.09 %IA/g
- Radioactivity, L. intestine ([3]; mouse, in vivo): 1.88 (0.65) % injected activity per gram
- Radioactivity, S. intestine ([3]; mouse, in vivo): 1.16 (0.15) ^* % injected activity per gram
- Radioactivity, Blood [3, 7]: 0.09 (0.05) ^*** % injected activity per gram
- Radioactivity, Bone [3, 7]: 0.83 (0.05) ^* % injected activity per gram
- Radioactivity, Brain [3, 7]: 0.05 (0.00) ^*** % injected activity per gram
- Radioactivity, Heart [3, 7]: 0.26 (0.04) ^*** % injected activity per gram
- Radioactivity, Kidney [3, 7]: 6.61 (0.81) ^* % injected activity per gram
- Radioactivity, Liver [3, 7]: 1.15 (0.07) ^** % injected activity per gram
- Radioactivity, Lung [3, 7]: 0.50 (0.04) ^*** % injected activity per gram
- Radioactivity, Muscle [3, 7]: 0.19 (0.02)^ *** % injected activity per gram
- Radioactivity, Neck [3, 7]: 0.02 (0.00)^ ** % injected activity
- Radioactivity, Pancreas [3, 7]: 0.40 (0.03)^ *** % injected activity per gram
- Radioactivity, Spleen [3, 7]: 0.64 (0.12) ^*** % injected activity per gram
- Radioactivity, Stomach [3, 7]: 0.44 (0.04)^ * % injected activity

- Effect of inhibitor on blood radioactivity of [^211At]1 [4]: decreased in a dose-dependent manner
SMILES: O=C([O-])CCCc1ccc(I)cc1.[Na+] [IPBA, sodium 4-(4-iodophenyl)butanoate, reference compound]
